These molecules were tested against SSTR4 (Homo sapiens, UniProt P31391) (assay: cell-based).
Sequence of SSTR4 (P31391 whole entry): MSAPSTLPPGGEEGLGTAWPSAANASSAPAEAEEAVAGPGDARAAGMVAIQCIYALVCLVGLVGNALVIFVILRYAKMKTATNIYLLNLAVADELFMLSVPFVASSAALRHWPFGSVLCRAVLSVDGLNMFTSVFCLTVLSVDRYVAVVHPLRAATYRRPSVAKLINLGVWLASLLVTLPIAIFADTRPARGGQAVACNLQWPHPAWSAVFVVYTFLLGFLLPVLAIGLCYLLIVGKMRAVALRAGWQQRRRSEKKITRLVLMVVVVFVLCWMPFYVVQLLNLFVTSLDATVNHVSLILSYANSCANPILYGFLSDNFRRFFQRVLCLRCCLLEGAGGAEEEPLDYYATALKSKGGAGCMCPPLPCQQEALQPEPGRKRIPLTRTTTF
Protocol: This cell-based assay measures the ability of compounds to inhibit forskolin stimulated cAMP in CHO-K1 cells overexpressing SSTR4. CHO-K1 cells overexpressing SSTR4 (CHO-SSTR4) are purchased from DiscoveRx (product code 95-0059C2). The CHO-SSTR4 cells are maintained in F12K media with 10% Fetal Bovine Serum (Hyclone), 1% Pen/Strep (Life Technologies), and 800 μg/mL G418 (Life Technologies). To perform the assay, 3000 cells are plated per well in white 384-well plate (Corning 3570) in 50 complete media and the cells are allowed to attach for 16 hours in a 37° C., 5% CO2 incubator. The next day, the culture media is removed from the cells and the cells are washed (added then removed) with Krebs Ringer Buffer (ZenBio, KRB-1000 mL). Test compounds are suspended in DMSO and diluted in stimulation buffer: Krebs Ringer Buffer plus 0.5% BSA (Roche), 300 μM IBMX (Sigma), and 350 nM forskolin (Sigma). The cells are incubated in 10 μL compound/stimulation buffer for 30 minutes at room temperature. Cellular cAMP levels are detected with a HTRF LANCE Ultra cAMP kit (Perkin Elmer, catalog number TRF0264).
The assay is performed in accordance with the manufacturer's instructions. Five μL of diluted Eu-W8044 labeled streptavidin (dilution: 1:50 in cAMP Detection Buffer) is added to each well. Then 5 μL of diluted biotin cAMP (dilution: 1:150 in cAMP Detection Buffer) is added to each well. The plates are covered and allowed to incubate for 60 minutes at room temperature on a shaker. HTRF (665 nm/615 nm) is read on a Perkin Elmer ENVISION plate reader. The pEC50 values are generated using Activity Base for Screening Data Management.
With C[C@H](c1ccc(F)cc1)c1nc(C(=O)NC2CCC2)cnc1NCCN1CCCC1 [Example 9, (R)-N-cyclobutyl-6-(1-(4-fluorophenyl)ethyl)-5-((2-(pyrrolidin-1-yl)ethyl)amino)pyrazine-2-carboxamide] the EC50 was 81.3 nM. COc1cccc(Cc2nc3c(C)cccc3nc2NCCN2CCC2)c1 (single isomer, unassigned) [Example 5, N-(2-(azetidin-1-yl)ethyl)-3-(3-methoxybenzyl)-5-methylquinoxalin-2-amine] was tested, and the EC50 was 331 nM. Molecule CC(c1ccc(F)cc1)c1nccnc1NCCN1CCC(F)C1 (stereo not shown) [Example 117, 3-(1-(4-fluorophenyl)ethyl)-N-(2-(3-fluoropyrrolidin-1-yl)ethyl)pyrazin-2-amine] has an EC50 of 224 nM. Work on CC[C@@H]1CN(C)CC[C@H]1Nc1ncc(C(=O)NC)nc1Cc1ccc(F)cc1 (racemic) [Example 36, 5-((trans-3-ethyl-1-methylpiperidin-4-yl)amino)-6-(4-fluorobenzyl)-N-methylpyrazine-2-carboxamide] yielded an EC50 of 224 nM. Work on COc1cccc(Cc2nc(C#N)c(C)nc2N[C@@H]2CCN(C)C2)c1 [Example 98, (R)-6-(3-methoxybenzyl)-3-methyl-5-((1-methylpyrrolidin-3-yl)amino)pyrazine-2-carbonitrile] yielded an EC50 of 77.6 nM. Cc1nc(Cc2ccc(F)cc2)c(NCCN2CCCC2)nc1C [Example 80, 3-(4-fluorobenzyl)-5,6-dimethyl-N-(2-(pyrrolidin-1-yl)ethyl)pyrazin-2-amine] showed an EC50 of 19.1 nM. Cc1nc(Cc2ccc(F)cc2)c(NC2CCN(C)CC2)nc1C [Example 79, 3-(4-fluorobenzyl)-5,6-dimethyl-N-(1-methylpiperidin-4-yl)pyrazin-2-amine] gave an EC50 of 229 nM. For Cc1nnc([C@@H](C)c2ccccc2)c(N[C@@H]2CCN(C)C2)n1 (single isomer, unassigned) [Example 150], the EC50 was 363 nM. Molecule Cc1nnc([C@@H](C)c2ccc(F)cc2)c(N[C@@H]2CCN(C)C2)n1 (single isomer, unassigned) [Example 142] has an EC50 of 120 nM. c1ccc(Cc2nc3ccccc3nc2NCCN2CCCC2)cc1 [Example 1, 3-benzyl-N-(2-(pyrrolidin-1-yl)ethyl)quinoxalin-2-amine] was tested, and the EC50 was 166 nM. In the case of CC[C@@H]1CN(C)CC[C@H]1Nc1ncc(C(F)(F)F)nc1Cc1ccc(F)cc1 (racemic) [Example 95, N-(trans-3-ethyl-1-methylpiperidin-4-yl)-3-(4-fluorobenzyl)-5-(trifluoromethyl)pyrazin-2-amine], the EC50 is reported as 741 nM. Work on Cc1cnc(-c2cnc(NCCN3CCCC3)c(C(C)c3ccc(F)cc3)n2)s1 (stereo not shown) [Example 127, 3-(1-(4-fluorophenyl)ethyl)-5-(5-methylthiazol-2-yl)-N-(2-(pyrrolidin-1-yl)ethyl)pyrazin-2-amine] yielded an EC50 of 224 nM. CNC(=O)c1cnc(N[C@@H]2CCN(C)C2)c([C@@H](C)c2ccc(F)cc2)n1 (single isomer, unassigned) [Example 34] showed an EC50 of 537 nM. Molecule Cc1nnc(Cc2ccc(F)cc2)c(NCCN2CCC2)n1 [Example 135, N-(2-(azetidin-1-yl)ethyl)-6-(4-fluorobenzyl)-3-methyl-1,2,4-triazin-5-amine] has an EC50 of 129 nM. Work on C[C@@H](c1ccc(F)cc1)c1nc(C(N)=O)cnc1N[C@@H]1CCN(C)C1 (single isomer, unassigned) [Example 31] yielded an EC50 of 331 nM. With CN(C)C(=O)c1cnc(NCCN2CCCC2)c(Cc2ccc(F)cc2)c1 [Example 99, 5-(4-fluorobenzyl)-N,N-dimethyl-6-((2-(pyrrolidin-1-yl)ethyl)amino)nicotinamide] the EC50 was 107 nM. Cc1nnc([C@@H](C)c2ccc(F)cc2)c(N[C@H]2CCN(C)C2)n1 (single isomer, unassigned) [Example 147] showed an EC50 of 224 nM. CN1CCCCC1CNc1nccnc1Cc1ccc(F)cc1 (stereo not shown) [Example 112, 3-(4-fluorobenzyl)-N-((1-methylpiperidin-2-yl)methyl)pyrazin-2-amine] showed an EC50 of 550 nM. CC1CN(C)CCC1Nc1nc(C(F)(F)F)cnc1Cc1ccc(F)cc1 (stereo not shown) [Example 92, N-(1,3-dimethylpiperidin-4-yl)-3-(4-fluorobenzyl)-6-(trifluoromethyl)pyrazin-2-amine] showed an EC50 of 115 nM. In the case of CC1CN(C)CCC1Nc1ncc(C(F)(F)F)nc1Cc1ccc(F)cc1 (mixture of isomers) [Example 91, N-(1,3-dimethylpiperidin-4-yl)-3-(4-fluorobenzyl)-5-(trifluoromethyl)pyrazin-2-amine], the EC50 is reported as 661 nM. Cc1nc(N[C@@H]2CCN(C)C[C@H]2C)c(Cc2ccc(F)cc2)nc1C(=O)N(C)C (racemic) [Example 47, 5-((trans-1,3-dimethylpiperidin-4-yl)amino)-6-(4-fluorobenzyl)-N,N,3-trimethylpyrazine-2-carboxamide] gave an EC50 of 47.9 nM. Work on CC(c1ccc(F)cc1)c1ncc(C(F)(F)F)nc1NCCN1CCCC1 (stereo not shown) [Example 94, 3-(1-(4-fluorophenyl)ethyl)-N-(2-(pyrrolidin-1-yl)ethyl)-6-(trifluoromethyl)pyrazin-2-amine] yielded an EC50 of 151 nM. CN1CCCC1CNc1nccnc1Cc1ccc(F)cc1 (stereo not shown) [Example 109, 3-(4-fluorobenzyl)-N-((1-methylpyrrolidin-2-yl)methyl)pyrazin-2-amine] showed an EC50 of 501 nM. Work on C[C@@H](c1ccc(F)cc1)c1nc(C(N)=O)cnc1NCCN1CCCC1 (single isomer, unassigned) [Example 20] yielded an EC50 of 708 nM. In the case of Fc1ccc(Cc2ncc(C(F)(F)F)nc2NCCN2CCCC2)cc1 [Example 93, 3-(4-fluorobenzyl)-N-(2-(pyrrolidin-1-yl)ethyl)-6-(trifluoromethyl)pyrazin-2-amine], the EC50 is reported as 77.6 nM. C[C@H]1C[C@H](Nc2nccnc2Cc2ccc(F)cc2)CCN1C (single isomer, unassigned) [Example 113, N-(trans-1,2-dimethylpiperidin-4-yl)-3-(4-fluorobenzyl)pyrazin-2-amine] was tested, and the EC50 was 813 nM. Work on Cc1nnc([C@H](C)c2ccccc2)c(N[C@H]2CCN(C)C2)n1 (single isomer, unassigned) [Example 151] yielded an EC50 of 316 nM. Cc1cnc(NCCN2CCCC2)c(C(C)c2ccc(F)cc2)n1 (stereo not shown) [Example 86, 3-(1-(4-fluorophenyl)ethyl)-5-methyl-N-(2-(pyrrolidin-1-yl)ethyl)pyrazin-2-amine] was tested, and the EC50 was 79.4 nM. CC1CN(C)CCC1Nc1ncc(C(N)=O)cc1Cc1ccc(F)cc1 (mixture of isomers) [Example 102, 6-((1,3-dimethylpiperidin-4-yl)amino)-5-(4-fluorobenzyl)nicotinamide] gave an EC50 of 398 nM. CNC(=O)c1cnc(N[C@@H]2CCN(C)C2)c([C@H](C)c2ccc(F)cc2)n1 (single isomer, unassigned) [Example 35] was tested, and the EC50 was 1200 nM. Work on Cc1cccc(Cc2nc(C#N)c(C)nc2N[C@@H]2CCN(C)C2)c1 [Example 97, (R)-3-methyl-6-(3-methylbenzyl)-5-((1-methylpyrrolidin-3-yl)amino)pyrazine-2-carbonitrile] yielded an EC50 of 36.3 nM. Molecule Cc1cccc2nc(Cc3ccccc3)c(NCCN3CCC3)nc12 (single isomer, unassigned) [Example 2, N-(2-(azetidin-1-yl)ethyl)-3-benzyl-8-methylquinoxalin-2-amine] has an EC50 of 67.6 nM. Cc1cccc(Cc2nc(C)c(C)nc2NCCN2CCCC2)c1 [Example 83, 5,6-dimethyl-3-(3-methylbenzyl)-N-(2-(pyrrolidin-1-yl)ethyl)pyrazin-2-amine] showed an EC50 of 7.76 nM. C[C@H]1C[C@@H](Nc2nccnc2Cc2ccc(F)cc2)CCN1C (single isomer, unassigned) [Example 114, N-(cis-1,2-dimethylpiperidin-4-yl)-3-(4-fluorobenzyl)pyrazin-2-amine] gave an EC50 of 575 nM. For CO[C@H]1C[C@@H](NC(=O)c2nc(C(C)c3ccc(F)cc3)c(NCCN3CCCC3)nc2C)C1 (stereo partly drawn) [Example 56, 6-(1-(4-fluorophenyl)ethyl)-N-(cis-3-methoxycyclobutyl)-3-methyl-5-((2-(pyrrolidin-1-yl)ethyl)amino)pyrazine-2-carboxamide], the EC50 was 7.59 nM. Cc1cccc(Cc2nc(C)c(C)nc2N[C@@H]2CCN(C)C2)c1 [Example 84, (R)-5,6-dimethyl-3-(3-methylbenzyl)-N-(1-methylpyrrolidin-3-yl)pyrazin-2-amine] was tested, and the EC50 was 45.7 nM. Fc1ccc(Cc2nccnc2N[C@@H]2CCNC[C@H]2F)cc1 (racemic) [Example 115, 3-(4-fluorobenzyl)-N-(trans-3-fluoropiperidin-4-yl)pyrazin-2-amine] was tested, and the EC50 was 219 nM. With CCc1nnc(Cc2cccc(C)c2)c(NCCN2CCC2)n1 [Example 130, N-(2-(azetidin-1-yl)ethyl)-3-ethyl-6-(3-methylbenzyl)-1,2,4-triazin-5-amine] the EC50 was 7.94 nM. Work on Cc1cnc(-c2cnc(NCCN3CCCC3)c(C(C)c3ccc(F)cc3)n2)n1C (stereo not shown) [Example 128, 5-(1,5-dimethyl-1H-imidazol-2-yl)-3-(1-(4-fluorophenyl)ethyl)-N-(2-(pyrrolidin-1-yl)ethyl)pyrazin-2-amine] yielded an EC50 of 81.3 nM. Cc1cccc(Cc2nc(C)c(C)nc2NC2CCN(C)CC2)c1 [Example 82, 5,6-dimethyl-3-(3-methylbenzyl)-N-(1-methylpiperidin-4-yl)pyrazin-2-amine] showed an EC50 of 107 nM. Work on CNC(=O)c1cnc(NCCN2CCCC2)c(Cc2ccc(F)cc2)c1 [Example 101] yielded an EC50 of 166 nM. For Cc1cccc2nc(NCCN3CCC3)c(Cc3ccccc3)nc12 (single isomer, unassigned) [Example 3, N-(2-(azetidin-1-yl)ethyl)-3-benzyl-5-methylquinoxalin-2-amine], the EC50 was 457 nM. NC(=O)c1cnc(NCCN2CCCC2)c(Cc2ccc(F)cc2)c1 [Example 100, 5-(4-fluorobenzyl)-6-((2-(pyrrolidin-1-yl)ethyl)amino)nicotinamide] showed an EC50 of 95.5 nM. In the case of Cc1nc(NCCN2CCCC2)c(C(C)c2ccc(F)cc2)nc1C(=O)O (stereo not shown) [Example 55], the EC50 is reported as 13.8 nM. Molecule C[C@@H](c1ccc(F)cc1)c1nccnc1NCCN1CCCC1 (single isomer, unassigned) [Example 122] has an EC50 of 575 nM. For Cc1nc(NCCN2CCCC2)c(C(C)c2ccc(F)cc2)nc1C(=O)N[C@H]1C[C@H](F)C1 (stereo partly drawn) [Example 76, N-(trans-3-fluorocyclobutyl)-6-(1-(4-fluorophenyl)ethyl)-3-methyl-5-((2-(pyrrolidin-1-yl)ethyl)amino)pyrazine-2-carboxamide], the EC50 was 7.76 nM.
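Also: CHO-K1 cells overexpressing SSTR4, reduction of forskolin-driven cAMP after 30 min compound exposure at room temperature, cAMP read by HTRF LANCE Ultra kit.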
